Key:
HF10—19P19 cells = experiment: Proton-pumping assay (light-driven pH change of cell suspension); type: cell-based, Escherichia coli; settings: PR^+ HF10—19P19 cells; CCCP 25 μM (2 h dark preincubation), DCCD 1 mM (20 h dark preincubation)
Protocol: FIG. 3. Light-activated, PR-enabled photophosphorylation in E. coli. (A) Diagram of the proposed mechanism of PR-dependent ATP synthesis. The effects of the inhibitors used are indicated. (B) Proton-pumping assays with HF10—19P19 cells. pH measurements are expressed as the pH change respect to the pH at time 0 for each sample. CCCP, 25 μM; DCCD, 1 mM. Gray boxes indicate dark periods. (C) ATP assays with HF10—19P19 cells. Results are expressed as the difference between the ATP level in the light and the ATP level in the dark, ΔATP, for each treatment.
Fosmid Library. The HOT—10m fosmid library screened in this work has been described previously (14). It contains DNA from a planktonic sample collected 10 m below the surface at the ALOHA station (22°45′ N, 158°W) of the Hawaii Ocean Time series (HOT) cloned into the copy-controlled pCC1FOS fosmid vector (Epicentre Biotechnologies, Madison, Wis.). The library host, E. coli EPI300 (Epicentre Biotechnologies), supports the copy-control option of pCC1FOS. Screening for PR Expression. High-density colony macroarrays [12,280 clones of the HOT—10m library (ref. 14)] were prepared on a Performa II filter (Genetix Ltd., Boston, Mass.) by using a Q-PixII robot (Genetix Ltd.). […] The color phenotype of individual Tn5-insertion clones was analyzed on LB plates containing chloramphenicol, kanamycin, and 0.02% L-arabinose as above. […]

PR^+ E. coli cells = type: cell-based, Escherichia coli; settings: for effect on photophosphorylation (light-driven ATP synthesis, ΔATP light minus dark): PR^+ HF10—19P19 cells, CCCP 25 μM (2 h dark preincubation), DCCD 1 mM (20 h dark preincubation)

SMILES	effect on light-driven decrease in pH (PR-catalyzed proton translocation) (HF10—19P19 cells)	effect on photophosphorylation (light-driven ATP synthesis, ΔATP light minus dark) (PR^+ E. coli cells)	net gain of ATP by oxidative phosphorylation (PR^+ E. coli cells; 5 min after addition of 0.2% succinate to PR^+ cells in the dark, data not shown)
N#CC(C#N)=NNc1cccc(Cl)c1 [CCCP, carbonylcyanide m-chlorophenylhydrazone]	completely abolished	completely abolished	–
C(=NC1CCCCC1)=NC1CCCCC1 [DCCD, N,N′-dicyclohexylcarbodiimide]	did not affect	completely abolished	–
O=C(O)CCC(=O)O [succinate]	–	–	9×10^5 ATP molecules per live cell

From patent publication US20090233342A1, “HETEROLOGOUS EXPRESSION OF PROTEORHODOPSIN PHOTOSYSTEM” (priority 2007, published 2009)
